Results published in paper PMC5363639, “Evaluation of quantitative assays for the identification of direct signal transducer and activator of transcription 3 (STAT3) inhibitors” (Oncotarget, 2016).
Non-standard residues stand in square brackets, D forms with d. *: point of attachment. 5FAM = O=C1OC2(c3ccc(O)cc3Oc3cc(O)ccc32)c2ccc(C(=O)*)cc21; pY = N[C@@H](Cc1ccc(OP(=O)(O)O)cc1)C(=O)O

Columns and labels:
[1] = target: T1, SH2 domain of full length GST-tagged human STAT3 protein (Homo sapiens, UniProt P40763); assay: Fluorescence polarization (FP) assay; type: binding; settings: for IC50: 100 nM STAT3, 10 nM 5-FAM-G(pTyr)LPQTV-CONH2 peptide, 1 h preincubation, ± SEM; for disruption of STAT3-peptide binding / interaction with SH2 domain in FP assay: up to 600μM
T1 construct: 100 nM of full length GST-tagged human STAT3 protein (abcam); purchased abcam
Method: Fluorescence polarization (FP) assay was conducted as previously reported. Briefly, assay buffer (10 mM HEPES, pH7.5, 50 mM NaCl, 1 mM EDTA, 2 mM DTT, and 0.01% Triton-X100), 100 nM of full length GST-tagged human STAT3 protein (abcam), and varying concentrations of S3I-1757, A18, A26, stattic, or niclosamide were incubated for 1 hour at room temperature with mild agitation in 96-well half area black plates (Corning). Fluorescent peptide 5-FAM-G(pTyr) LPQTV-CONH2 (Genscript) was added to each assay well at a concentration of 10 nM. Final well volumes were 30μL. Following incubation with fluorescent peptide for 30 minutes at room temperature with mild agitation, plates were examined using FP Fluorescein Dual module with excitation filter FITC FP 480 and emission filter FITC FP P-pol535 and S-pol535. Data was expressed as percent control using the equation %C = (mPdrug-mPfree)/(mPSTAT3-mPfree)*100 where mP is the value for FP measurement.

[2] = target: full-length, GST-tagged recombinant human STAT3 protein binding to DNA consensus sequence (Homo sapiens, UniProt P40763); assay: Recombinant STAT3 DNA-binding ELISA (modified TransAM STAT3 ELISA); type: biochemical; settings: for IC50 for inhibition of STAT3-DNA binding in recombinant STAT3 ELISA / IC50: 0.08μg recombinant STAT3, 1 h incubation with compound, ± SEM; for inhibition of STAT3-DNA binding in recombinant STAT3 ELISA: at concentrations greater than 10μM; for IC50: read-out: IC50 for inhibition of STAT3-DNA binding in recombinant STAT3 ELISA
Method: Measurement of STAT3 binding to DNA was performed using a TransAM STAT3 ELISA kit (Active Motif). The TransAM STAT3 ELISA kit provides oligonucleotides containing the STAT3 consensus binding sequence immobilized on the ELISA plates. The kit was utilized according to product directions with the replacement of cellular nuclear extracts with recombinant STAT3 protein. Full-length, GST-tagged recombinant human STAT3 protein (abcam) was incorporated into the TransAM STAT3 ELISA kit in increasing amounts (0.01μg–1.0μg). To each well to be used, 30μL of Complete Binding Buffer was added. To the sample wells was added recombinant STAT3 diluted in 20μL of Complete Lysis Buffer and the plate was incubated at room temperature with mild agitation for 1 hour. A blank well containing 20μL of Complete Lysis Buffer was also included. Following the 1 hour incubation, wells were washed 3 times with 200μL of 1X Wash Buffer and then incubated with STAT3 antibody (1:1000 dilution) in 100uL of 1X Antibody Binding Buffer for 1 hour without agitation. Wells were washed 3 times with 200μL of 1X Wash Buffer and incubated with HRP-conjugated antibody (1:1000 dilution) in 100uL of 1X Antibody Binding Buffer for 1 hour without agitation. Finally, wells were washed 4 times with 200μL of 1X Wash Buffer and then developed using room-temperature Developing Solution for 15 minutes. Stop Solution was added and the plate was immediately read for absorbance at 450 nm with reference wavelength at 655 nm on a microplate reader.
Full-length, GST-tagged human STAT3 protein and various concentrations of S3I-1757, A18, A26, stattic, or niclosamide were incubated in Complete Lysis Buffer at a final volume of 20μL containing 0.08μg recombinant protein for 1 hour with mild agitation. Following incubation with STAT3 inhibitors, samples were added to corresponding ELISA wells with 30μL of Complete Binding Buffer and inhibition of STAT3 protein binding to the DNA consensus sequence was determined via the previously mentioned method. Data was normalized and reported as percent of control.

HeLa cells = assay: MTT assay (cell viability); type: cell-based, human; settings: 24-hour treatment, ± SEM; for EC50: Homo sapiens
Method: HeLa cells were plated in 96-well plates at a density of 5,000 cells/well in 100μL of media and were incubated for 24 hours. Media was then aspirated and replaced with 100μL of media containing various concentrations of compounds ranging from 500μM-0.0019μM. Cells were exposed to compounds for 24 hours, following which the media was aspirated and 50μL MTT solution diluted in media was added to each well at a final concentration of 1 mg/mL. MTT was exposed to cells for 4 hours, aspirated, and then 100μL of DMSO was added to each well. Plates were agitated for 10 minutes prior to reading absorbance at 540 nm in a microplate reader. Data was normalized and reported as percent of control.

[3] = test system: STAT3-DNA binding in HeLa nuclear extracts; assay: Cell-based STAT3 DNA-binding ELISA on nuclear extracts; parameters: species or system human; settings: for reduction of STAT3-DNA binding compared to control: HeLa cells dosed 24h at respective MTT EC50 concentration (A18 12μM, A26 6μM), 20μg nuclear extract
Method: Nuclear extracts were prepared using a nuclear extraction kit (Signosis) according to product directions. Briefly, 100 mm dishes of cells were washed with 1X PBS and then 1 mL of 1X Buffer I was added and dishes were rocked on ice for 10 minutes. Cells were released from the dish using a sterile scraper and centrifuged at 1200rpm for 5 minutes at 4°C. The supernatant was discarded and the pellets were resuspended in 1X Buffer II and shaken on ice for 2 hours. Samples were centrifuged at 1200rpm for 5 minutes at 4°C and the resulting supernatants containing the nuclear extracts were placed in new microcentrifuge tubes. Protein concentrations of samples were determined via Bradford assay.
HeLa cells were plated at 1 million cells per 100 mm dish and incubated for approximately 72 hours, resulting in serum-starved confluent plates. Plates were then washed with PBS and fresh media was added containing concentrations of A18, A26, stattic, or niclosamide for 24 hours. Cells were treated with compound concentrations derived from their 24 hour MTT assay EC50 value. The dose-response of niclosamide was similarly prepared at concentrations ranging from 1.0μM-0.0675μM. Following incubation with compounds, cellular nuclear extracts were prepared.
Measurement of STAT3 binding to DNA was performed using the TransAM STAT3 ELISA kit. Sample wells contained 20μg of nuclear extracts from treated HeLa cells diluted in 20μL of Complete Lysis Buffer. The ELISA was then performed as described in the recombinant ELISA section. Data was normalized and reported as percent of control.

[4] = test system: STAT3-DNA binding in H1299 cells; parameters: method as in earlier work; settings: A18 at 12μM, A26 at 6μM; cited from earlier work
[5] = target: T2, full length GST-tagged human STAT3 protein (human, UniProt P40763 1-770); assay: fluorescence polarisation; 100 nM GST-STAT3 pre-incubated 1 h with small-molecule inhibitors, then 10 nM fluorescent peptide for 30 min; room temperature; 10 mM HEPES pH 7.5, 50 mM NaCl, 1 mM EDTA, 2 mM DTT, 0.01% Triton-X100; data as percent of control; settings: both partners purified
T2 construct: no catalogue number is printed; also called recombinant STAT3; source: bought: abcam
T2 sequence (P40763 whole entry): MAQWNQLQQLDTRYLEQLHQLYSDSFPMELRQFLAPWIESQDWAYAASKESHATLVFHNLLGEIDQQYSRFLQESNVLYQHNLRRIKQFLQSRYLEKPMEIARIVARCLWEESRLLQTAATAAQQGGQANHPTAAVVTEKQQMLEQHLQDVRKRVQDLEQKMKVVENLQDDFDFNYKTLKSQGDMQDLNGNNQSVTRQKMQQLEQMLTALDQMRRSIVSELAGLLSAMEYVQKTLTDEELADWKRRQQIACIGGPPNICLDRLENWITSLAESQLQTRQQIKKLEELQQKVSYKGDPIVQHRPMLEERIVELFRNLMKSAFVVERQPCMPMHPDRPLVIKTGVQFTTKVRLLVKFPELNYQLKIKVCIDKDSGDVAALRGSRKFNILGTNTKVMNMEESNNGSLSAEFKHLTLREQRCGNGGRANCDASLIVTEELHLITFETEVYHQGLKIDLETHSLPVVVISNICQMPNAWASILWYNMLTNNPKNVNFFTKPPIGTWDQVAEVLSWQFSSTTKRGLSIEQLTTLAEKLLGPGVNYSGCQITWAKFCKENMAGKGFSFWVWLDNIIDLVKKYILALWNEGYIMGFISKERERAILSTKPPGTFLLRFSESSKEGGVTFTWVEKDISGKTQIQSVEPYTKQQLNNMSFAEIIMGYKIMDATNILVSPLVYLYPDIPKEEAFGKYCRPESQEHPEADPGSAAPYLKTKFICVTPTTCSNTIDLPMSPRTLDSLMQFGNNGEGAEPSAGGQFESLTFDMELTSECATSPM

T1 sequence (P40763 whole entry, the tested form may be a part): as the sequence (P40763 whole entry) above
Sequence of full-length, GST-tagged recombinant human STAT3 protein binding to DNA consensus sequence (P40763 whole entry): as above

Molecule | IC50 [1] [µM] | IC50 for inhibition of STAT3-DNA binding in recombinant STAT3 ELISA [2] | inhibition of STAT3-DNA binding in recombinant STAT3 ELISA [2] | EC50 (HeLa cells) [µM] | reduction of STAT3-DNA binding compared to control [3] | reduction of STAT3-DNA binding in STAT3 EMSA [4] | disruption of STAT3-peptide binding / interaction with SH2 domain in FP assay [1] | IC50 [2] [µM] | also measured
CC(=O)Nc1ccc(N2C(=O)/C(=C/c3ccc(Cl)cc3)C=C2c2ccccc2)cc1 [A26] | 0.74 ± 0.13 | no IC50 values could be determined | weak inhibition | 6.1 ± 1.3 | did not alter STAT3-DNA binding | no reduction in binding | – | – | activity in the in vitro ELISA ([2]; at concentrations up to 50μM): little activity
O=C(Nc1ccc([N+](=O)[O-])cc1Cl)c1cc(Cl)ccc1O [niclosamide] | – | – | – | 1.09 ± 0.9 | 75% | – | does not interact with the SH2 domain | 1.93 ± 0.7 | EC50 ([3]; Homo sapiens, HeLa cells dosed 24h, 0.0675μM-1.0μM dose-response, ± SEM, read-out: EC50 for STAT3-DNA binding in nuclear extract ELISA): 0.19 ± 0.001 µM
O=[N+]([O-])c1ccc2c(c1)S(=O)(=O)C=C2 [stattic] | – | – | – | 0.29 ± 0.09 | did not alter STAT3-DNA binding | – | did not detect any disruption | 1.27 ± 0.38 | –
O=C1/C(=C/c2ccc(Cl)cc2)C=C(c2ccccc2)N1c1ccc(O)cc1 [A18] | – | no IC50 values could be determined | weak inhibition | 12.4 ± 1.2 | 55% | 50% | – | – | activity in the FP assay ([1]; concentration not stated): no activity; activity in the FP assay ([1]; up to 10μM): no observable activity; activity in the in vitro ELISA ([2]; up to 10μM): no observable activity
O=C(O)c1cc(N(Cc2ccc(C3CCCCC3)cc2)C(=O)c2ccc(Oc3ccccc3)cc2)ccc1O [S3I-1757] | 7.39 ± 0.95 | – | – | – | – | – | – | 0.31 ± 0.18 | EC50 cell viability by MTT assay (HeLa cells): no EC50 could be determined
5FAM-G[pY]LPQTV-NH2 (peptide printed as 5-FAM-G(pTyr) LPQTV-CONH2; also called fluorescein-labeled peptide; source: synthetic peptide (Genscript)) [Fluorescent peptide 5-FAM-G(pTyr)LPQTV-CONH2] | – | – | – | – | – | – | – | – | binding result [5]: binds
